Source: patent US20230263822A1, “MODULATION OF FACTOR 11 EXPRESSION” (Ionis Pharmaceuticals, Inc., priority 2008, published 2023)

Tests used:
[1] = Kidney function, urine protein to creatinine ratio in cynomolgus monkeys (Example 45); format: in vivo
Experimental: (§1) Groups, each consisting of two male and three female monkeys, were injected subcutaneously with ISIS 416838, ISIS 416850, ISIS 416858, ISIS 416864, or ISIS 417002 in escalating doses. Antisense oligonucleotide was administered to the monkeys at 5 mg/kg three times per a week for week 1; 5 mg/kg twice per week for weeks 2 and 3; 10 mg/kg three times per week for week 4; 10 mg/kg twice per week for weeks 5 and 6; 25 mg/kg three times per week for week 7; and 25 mg/kg twice per week for weeks 8, 9, 10, 11, and 12. One control group, consisting of two male and three female monkeys, was injected subcutaneously with PBS according to the same dosing regimen. An additional experimental group, consisting of two male and three female monkeys, was injected subcutaneously with ISIS 416850 in a chronic, lower dose regimen. Antisense oligonucleotide was administered to the monkeys at 5 mg/kg three times per week for week 1; 5 mg/kg twice per week for week 2 and 3; 10 mg/kg three times per week for week 4; and 10 mg/kg twice per week for weeks 5 to 12. Body weights were measured weekly. Blood samples were collected 14 days and 5 days before the start of treatment and subsequently once per week for Factor 11 protein activity analysis in plasma, fibrinogen measurement, PT and aPTT measurements, bleeding times, and measurement of various hematologic factors. On day 85, the monkeys were euthanized by exsanguination while under deep anesthesia, and organs harvested for further analysis.
To evaluate the impact of ISIS oligonucleotides on kidney function, urine samples were collected.

[2] = Tolerability in Sprague-Dawley rats: liver function (Example 35); settings: plasma, 50 mg/kg s.c. twice per week for 6 weeks
[3] = Body and organ weights of cynomolgus monkeys (Example 45); format: in vivo; settings: for Organ weights, Kidney / Organ weights, Liver / Organ weights, Spleen: after the animals were euthanized; for body weights: escalating dose regimen;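 as to Organ weights, Kidney: absolute organ weight in grams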;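 as to Organ weights, Liver: absolute organ weight in grams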;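 as to Organ weights, Spleen: absolute organ weight in grams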
Experimental: as §1
Body weights were taken once weekly throughout the dosing regimen. […] Organ weights were taken after the animals were euthanized and livers, kidneys and spleens were harvested and weighed. […] The ISIS oligonucleotide, ISIS 416850, given with the chronic dose regimen is distinguished from the other oligonucleotides with an asterisk (*).

[4] = tested on: Factor 11 protein; assay: Factor 11 protein in monkey plasma by sandwich ELISA (Example 45); format: in vivo, cynomolgus monkeys; settings: escalating dose regimen, plasma ELISA
Experimental: as §1
Plasma samples from all monkey groups taken on different days were analyzed by a sandwich-style ELISA assay (Affinity Biologicals Inc.) using an affinity-purified polyclonal anti-Factor 11 antibody as the capture antibody and a peroxidase-conjugated polyclonal anti-Factor 11 antibody as the detecting antibody. Monkey plasma was diluted 1:50 for the assay. Peroxidase activity was expressed by incubation with the substrate o-phenylenediamine. The color produced was quantified using a microplate reader at 490 nm and was considered to be proportional to the concentration of Factor 11 in the samples.
The results are presented in Table 115, expressed as percentage reduction relative to that of the PBS control.

ISIS 416864: MOE gapmer, nucleobases 1275 to 1318 of SEQ ID NO: 1 (Table 8) (antisense GGCAGCGGACGGCATTGGTG; MOE gapmer, wing and gap sizes not given here)
urine protein to creatinine ratio ([1]; Day 80): 0.36 | urine protein to creatinine ratio ([1]; Day 84): 0.34 | ALT [2]: 471 IU/L | AST [2]: 68 IU/L | Albumin [2]: 4 | Bilirubin [2]: 3 mg/dL | Organ weights, Kidney [3]: 14 g | Organ weights, Liver [3]: 53 g | Organ weights, Spleen [3]: 5 g | body weights ([3]; day 1): 2890 g | body weights ([3]; day 8): 2784 g | body weights ([3]; day 15): 2817 g | body weights ([3]; day 22): 2857 g | body weights ([3]; day 29): 2863 g | body weights ([3]; day 36): 3327 g | body weights ([3]; day 43): 3355 g | body weights ([3]; day 50): 3408 g | body weights ([3]; day 57): 3387 g | body weights ([3]; day 64): 3384 g | body weights ([3]; day 71): 2942 g | body weights ([3]; day 78): 2822 g | Inhibition of Factor 11 protein relative to the PBS control ([4]; day 8): 7% | Inhibition of Factor 11 protein relative to the PBS control ([4]; day 15): 9% | Inhibition of Factor 11 protein relative to the PBS control ([4]; day 22): 7% | Inhibition of Factor 11 protein relative to the PBS control ([4]; day 29): 10% | Inhibition of Factor 11 protein relative to the PBS control ([4]; day 36): 9% | Inhibition of Factor 11 protein relative to the PBS control ([4]; day 43): 9% | Inhibition of Factor 11 protein relative to the PBS control ([4]; day 50): 10% | Inhibition of Factor 11 protein relative to the PBS control ([4]; day 57): 7% | Inhibition of Factor 11 protein relative to the PBS control ([4]; day 64): 5% | Inhibition of Factor 11 protein relative to the PBS control ([4]; day 71): 10% | Inhibition of Factor 11 protein relative to the PBS control ([4]; day 78): 9% | Inhibition of Factor 11 protein relative to the PBS control ([4]; day 85): 8% | Inhibition of Factor 11 protein relative to the PBS control ([4]; day −5): 5% | Inhibition of Factor 11 protein relative to the PBS control ([4]; day −14): 0%

ISIS 417002: MOE gapmer, nucleobases 1275 to 1318 of SEQ ID NO: 1 (Table 8) (antisense GGTGCACAGTTTCTGGCAGG; MOE gapmer, wing and gap sizes not given here)
urine protein to creatinine ratio ([1]; Day 80): 0.18 | urine protein to creatinine ratio ([1]; Day 84): 0.24 | ALT [2]: 44 IU/L | AST [2]: 11 IU/L | Albumin [2]: 3 | Bilirubin [2]: 12 mg/dL | Organ weights, Kidney [3]: 15 g | Organ weights, Liver [3]: 51 g | Organ weights, Spleen [3]: 5 g | body weights ([3]; day 1): 2640 g | body weights ([3]; day 8): 2523 g | body weights ([3]; day 15): 2571 g | body weights ([3]; day 22): 2617 g | body weights ([3]; day 29): 2622 g | body weights ([3]; day 36): 2631 g | body weights ([3]; day 43): 2630 g | body weights ([3]; day 50): 2652 g | body weights ([3]; day 57): 2654 g | body weights ([3]; day 64): 2598 g | body weights ([3]; day 71): 2727 g | body weights ([3]; day 78): 2570 g | Inhibition of Factor 11 protein relative to the PBS control ([4]; day 8): 0% | Inhibition of Factor 11 protein relative to the PBS control ([4]; day 15): 4% | Inhibition of Factor 11 protein relative to the PBS control ([4]; day 22): 2% | Inhibition of Factor 11 protein relative to the PBS control ([4]; day 29): 8% | Inhibition of Factor 11 protein relative to the PBS control ([4]; day 36): 8% | Inhibition of Factor 11 protein relative to the PBS control ([4]; day 43): 9% | Inhibition of Factor 11 protein relative to the PBS control ([4]; day 50): 13% | Inhibition of Factor 11 protein relative to the PBS control ([4]; day 57): 24% | Inhibition of Factor 11 protein relative to the PBS control ([4]; day 64): 26% | Inhibition of Factor 11 protein relative to the PBS control ([4]; day 71): 30% | Inhibition of Factor 11 protein relative to the PBS control ([4]; day 78): 22% | Inhibition of Factor 11 protein relative to the PBS control ([4]; day 85): 23% | Inhibition of Factor 11 protein relative to the PBS control ([4]; day −5): 0% | Inhibition of Factor 11 protein relative to the PBS control ([4]; day −14): 0%
